Where “and” joins values, the source holds several entries; their conditions need not be identical. Equal entries are not always repeated.
What was measured:
Plasma stability, dog = format: in vitro ADME; details: Beagle, pooled plasma, 37° C., read-out: Half-life in ex vivo blood plasma
Source text: Samples were quenched in methanol and analyzed by LC-MS/MS analysis.

[1] = Plasma protein binding by equilibrium dialysis, dog; format: in vitro ADME; details: male, beagle, pH 7.4, read-out: Plasma free fraction
Method: Plasma protein binding was assessed by equilibrium dialysis, utilizing the HT-dialysis cell format with a cellulose semi permeable membrane (molecular weight cut off of 5000 Da). Plasma was warmed to 37° C. and adjusted to pH 7.4 before use. Male Sprague-Dawley rat, male Beagle dog, male CD-1 mouse and mixed sex human plasma was used for the studies. A 5 μM test compound solution was prepared in isotonic phosphate buffer and rat, dog, mouse and human plasma (final DMSO concentration of 0.5%). The plasma-containing solution was introduced to one side of the membrane, and the plasma-free on the other. Incubations were performed for 2-16 hours in duplicate in order to allow the compound to reach equilibrium. Haloperidol was included as the control compound for each species. At the end of the equilibration time the cells were emptied. Following protein precipitation, the samples were centrifuged and analyzed by LC-MS/MS. The samples from the protein containing compartment were quantified using calibration standards prepared in plasma and the protein free compartments were quantified using calibration standards prepared in dialysis buffer.

[2] = Prediction of human pharmacokinetics by interspecies scaling
Source text: PK endpoints of CL and VDss in mouse, rat and dog were used to scale to the corresponding parameters in human using a variety of allometric and interspecies scaling approaches as previously reported (Boxenbaum, Journal of Pharmacokinetics and Biopharmaceutics 10(2): 201-227, 1982; Jones et al., Journal of Pharmaceutical Sciences 100(10): 4074-4089, 2011; Lombardo et al., J Clin Pharmacol 53(2): 178-191, 2013a; Lombardo et al., J Clin Pharmacol 53(2): 167-177, 2013b; Mahmood & Balian, Xenobiotica 26(9): 887-895, 1996; Ring et al., Journal of Pharmaceutical Sciences 100(10): 4090-4110, 2011; Tang & Mayersohn, Journal of Pharmaceutical Sciences 95(8): 1783-1799, 2006; Tang & Mayersohn, Drug Metabolism and Disposition 33(9): 1297-1303, 2005; Vuppugalla et al., Journal of Pharmaceutical Sciences 100(10): 4111-4126, 2011). The likely predictive accuracy of each method was assessed based on visual inspection of the data fit, as well as values such as the R^2 and the allometric exponent, where appropriate.

[3] = Liver microsome stability, rat; format: in vitro ADME
Method: (§1) The final incubation volume was 50 μL. Control incubations were included for each species where 0.1 M phosphate buffer pH 7.4 was added instead of NADPH (minus NADPH). Two control compounds were included for each species. […] The control (minus NADPH) was incubated for 45 minutes only. The reactions were stopped by transferring 25 μL of incubate to 50 μL methanol at the appropriate time points. The incubation plates were centrifuged at 2,500 rpm for 20 minutes at 4° C. to aid protein precipitation. Experimental half-lives were transformed to the corresponding intrinsic clearance values and subsequently scaled to predicted in vivo clearance values, using the well-stirred model as previously described (Houston, Biochemical Pharmacology 47(9): 1469-1479, 1994; Obach, Drug Metabolism and Disposition 27(11): 1350-1359, 1999), with appropriate species-specific scaling factors (Barter et al., Current Drug Metabolism 8(1): 33-45, 2007).

[4] = Liver microsome stability, mouse; format: in vitro ADME
Method: as §1

[5] = Metabolite profiling in liver microsomes with NADPH and UDPGA, mouse; format: in vitro ADME; details: Compound A 10 μM, 20 min
Method: Compound A was incubated with liver microsomes of various species (mouse, rat, dog or human). […] For all liver microsomal incubations, samples were taken at 0 and 20 minutes. All samples were quenched by using acetonitrile/methanol solution and analyzed using an LC-MS/MS Q-Trap system (AB Sciex, Framingham, Mass.).
The corresponding product ion tandem mass spectra of Compound A and its metabolites were obtained by using enhanced product ion (EPI) scans during positive ion electrospray. The possible chemical structures of the metabolites were deduced based on their MS1 and MS2 spectra.

P-glycoprotein (MDR1) = experiment: MDCK cell permeability, MDR1-transfected cells; format: in vitro ADME, dog; details: dog, 10 uM
Method: (§2) Samples were taken from the donor and receiver chambers at 120 minutes. Each determination was performed in duplicate. Co-dosed lucifer yellow flux was also measured for each monolayer to ensure cell monolayers remained intact during the incubation. All samples were assayed by LC-MS/MS.

[6] = system: MDR1-MDCK (P-glycoprotein) cells; experiment: MDCK cell permeability, MDR1-transfected cells; format: in vitro ADME, dog; details: from relative efflux ratio, transfected vs native cells
Method: as §2

[7] = liver microsomes, pH 7.4, NADPH, 3 μM

With `CC(C)N(C[C@H]1O[C@@H](n2cnc3c(N)ncnc32)[C@H](O)[C@@H]1O)[C@H]1C[C@@H](CCc2nc3cc(C(C)(C)C)ccc3[nH]2)C1` [Compound A, (2R,3R,4S,5R)-2-(6-amino-9H-purin-9-yl)-5-((((1r,3S)-3-(2-(5-(tert-butyl)-1H-benzo[d]imidazol-2-yl)ethyl)cyclobutyl)(isopropyl)amino)methyl)tetrahydrofuran-3,4-diol] the half-life at 1 μM (Plasma stability, dog) was greater than 2 h, the fraction unbound at 5 μM [1] was 0.234 and the “Predicted human VDss” value ([2]; Consensus prediction) was 2.8 L/kg and 2.76 L/kg. The “Predicted human CL” value ([2]; Consensus prediction (excludes simple allometry)) was 6.5 mL/min/kg, the “Predicted human CL” value ([2]; MLR rat-dog) was 11 mL/min/kg and 10.7 mL/min/kg and the “Predicted human VDss” value ([2]; Oie-Tozer equation, rat and dog data) was 0.97 L/kg. The “Predicted human CL” value ([2]; Simple allometry) was 13.3 mL/min/kg, the “Predicted human VDss” value ([2]; Simple allometry) was 2.71 L/kg and the “allometric exponent for CL” value ([2]; Simple allometry) was 0.76. For the same molecule, the “Predicted human VDss” value ([2]; Simple allometry - unbound) was 1.16 L/kg, the “Predicted human VDss” value ([2]; Wajima equation, rat and dog data) was 6.2 L/kg and the “human CL estimates” value ([2]; across multiple, diverse scaling approaches) was 6 to 8 mL/min/kg. For the same molecule, the “Predicted human VDss” value ([2]; simple allometry (total and unbound) and Oie-Tozer equation) was 1 to 3 L/kg, the “Predicted human VDss” value ([2]; simple allometry using total and unbound terms) was 1.2 to 2.7 L/kg and the microsomal CLint at 3 μM [3, 7] was 72 µL/min/mg. For the same molecule, the “Scaled Hepatic CL from liver microsomes” value ([3]; well-stirred model) was 45 mL/min/kg, the microsomal CLint at 3 μM [4, 7] was 150 µL/min/mg and the “Scaled Hepatic CL from liver microsomes” value ([4]; well-stirred model) was 78 mL/min/kg. The “Abundance based on UV spectra” value [5] was 25.4%, the Papp A→B at 120 min, 10 uM (P-glycoprotein (MDR1); MDCK-MDR1, MDCK - MDR1 transfected, Apical-to-basolateral) was less than 0.1 ×10⁻⁶ cm/s and the Papp B→A at 120 min, 10 uM (P-glycoprotein (MDR1); MDCK - MDR1 transfected, Basolateral-to-apical) was 0.22 ×10⁻⁶ cm/s. The “P-gp substrate (in words)” value [6] was “not a substrate for P-gp”.

Source: patent US20160368943A1, “SUBSTITUTED PURINE COMPOUNDS” (EPIZYME, INC., priority 2013, published 2016)
